Where two headings read alike, the source gives them in different places.
How the values were obtained:
[1] = tested on: PSMA-positive PC-3 PIP tumor cells; assay: Tumor cell uptake and internalization; type: cell-based, human; settings: for Internalized fraction: PC-3 PIP
PC-3 PIP tumor cells = assay: Cell viability assay (MTT assay); type: cell-based, human
Method: The detailed methods of these studies, including dosimetric calculations, are described in the Supplementary material. The results were analyzed for statistical significance by a two-way ANOVA with Sidak’s multiple comparison post-test using Graph Pad Prism (version 7).
Methods: Tumor cell viability was assessed using a 3-(4,5-dimethylthiazol-2-yl)-2,5-diphenyltetrazolium bromide (MTT) assay as described by Mosmann. PC-3 PIP tumor cells (2500 cells in 200 μL RPMI medium with supplements) were seeded in 96-well plates and incubated overnight (37°C; 5% CO2) to allow adhesion of the tumor cells. The supernatants were removed and the tumor cells were washed once with 200 μL PBS. Afterwards, the tumor cells were incubated in 200 μL RPMI medium (without supplements) containing ^161Tb-PSMA-617 or ^177Lu-PSMA-617 (0.01‒20 MBq/mL), respectively, or just RPMI medium without addition of radioligands. PSMA-negative PC-3 flu tumor cells were also treated with these radioligands under the same experimental conditions using the same concentration range. Additional cell viability assays were performed with PC-3 PIP tumor cells incubated with RPMI medium (without supplements) containing ^161Tb-diethylenetriaminepentaacetic acid (DPTA) or ^177Lu-DTPA (0.01 – 20 MBq/mL). After 4 h incubation (37 °C; 5% CO2), the tumor cells were washed once with 200 μL PBS, followed by the addition of 200 μL of RPMI medium (with supplements) to each well. The tumor cells were left to grow for 6 days under standard cell culture conditions (37 °C, 5% CO2). At Day 6 after treatment, MTT reagent (5 mg/mL in PBS, 30 μL per well) was added to each well to allow the formation of dark-violet formazan crystals within 4 h incubation. The crystals were dissolved by the addition of dimethyl sulfoxide to determine the absorbance at 560 nm using a microplate reader (Victor X3, Perkin Elmer). Cell viability was quantified by expressing the absorbance of the test samples as percentage of the absorbance of control (untreated) cell samples which was set to 100%. Statistical analysis was performed using a two-way ANOVA with Sidak’s multiple comparison post-test in Graph Pad Prism (version 7).

[2] = tested on: PSMA-negative PC-3 flu tumor cells; assay: Cell survival assay (clonogenic assay); type: cell-based; settings: 1 MBq/mL and higher, p > 0.05
[3] = tested on: PC-3 PIP/flu tumor-bearing mice; settings: for Biodistribution: Blood / Biodistribution: Bone / Biodistribution: Heart / Biodistribution: Intestines / Biodistribution: Kidneys / Biodistribution: Liver / Biodistribution: Lung / Biodistribution: Muscle / Biodistribution: PC-3 PIP tumor / Biodistribution: PC-3 flu tumor / Biodistribution: Salivary glands / Biodistribution: Spleen / Biodistribution: Stomach: 5.0 MBq, 1 nmol i.v.; for Tumor-to-blood / Tumor-to-kidney / Tumor-to-liver: PC-3 PIP tumor
Method: Biodistribution studies were performed 12–14 days after tumor cell inoculation when the tumor xenografts reached an average tumor volume of about ~50–200 mm^3 (Supplementary material). PSMA-617 was labeled with ^161Tb at a specific activity of 5.0 MBq/nmol and diluted in saline. […] The mice were sacrificed at 1 h, 4 h, 24 h, 48 h, or 96 h post injection (p.i.) and selected tissues and organs were collected, weighed, and measured using a γ-counter (Perkin Elmer, Wallac Wizard 1480). Groups of 3–5 mice were sacrificed at each time point. The results were decay-corrected and listed as percentage of the injected activity per gram of tissue mass (% IA/g). Data are presented as the average ± standard deviation (SD).
A p-value of < 0.05 was considered statistically significant.
Biodistribution studies were performed 12–14 days after tumor cell inoculation. The experimental procedure of the biodistribution studies is described in the main manuscript.

[4] = tested on: PC-3 PIP/flu tumor-bearing mice; settings: ~25 MBq
Method: In a separate study, SPECT/CT experiments were performed 12–14 days after tumor cell inoculation using a dedicated small-animal SPECT/CT camera (NanoSPECT/CT^TM, Mediso Medical Imaging Systems, Budapest, Hungary) as previously reported (Supplementary material) [34]. ^161Tb-PSMA-617 (~25 MBq/nmol) was diluted in saline for injection. Scans were acquired at 1 h, 4 h, and 24 h after injection of the radioligands (~25 MBq, 1 nmol, 100 μL). During the in-vivo scans, mice were anesthetized using a mixture of Isoflurane and oxygen.
Methods: Mice were inoculated with PC-3 PIP/flu tumor cells, as described for biodistribution studies, and injected with ^161Tb-PSMA-617 (~25 MBq, 1 nmol per mouse) about 12-14 days later. Under these conditions, the SPECT scans lasted for ~40 min. […] During the in-vivo scans, mice were anesthetized using a mixture of Isoflurane and oxygen.
SPECT/CT experiments were performed using a dedicated small-animal SPECT/CT camera (NanoSPECT/CT^TM, Mediso Medical Imaging Systems, Budapest, Hungary) as previously reported [4, 10]. The images were acquired using Nucline software (version 1.02, Mediso Ltd., Budapest, Hungary). The real-time CT reconstruction used a cone-beam-filtered backprojection. […] The lower scale of radioactivity was cut by 1% to make tumors and kidneys best visible.

O=C([O-])CN1CCN(CC(=O)[O-])CCN(CC(=O)NCC2CCC(C(=O)NC(Cc3ccc4ccccc4c3)C(=O)NCCCCC(NC(=O)NC(CCC(=O)O)C(=O)O)C(=O)O)CC2)CCN(CC(=O)[O-])CC1.[161Tb+3] (stereo not shown) [^161Tb-PSMA-617]
PC-3 PIP tumor cell uptake ([1]; 2–4 h incubation): 47–54%
Uptake in PC-3 PIP tumor cells ([1]; 2 h incubation): 47%
Uptake in PC-3 PIP tumor cells ([1]; 4 h incubation): 54%
Internalized fraction ([1]; 2–4 h incubation): 8–11%
Internalized fraction ([1]; 2 h): 8%
Internalized fraction ([1]; 4 h): 11%
Reduction of tumor-cell viability compared to ^177Lu-PSMA-617 (PC-3 PIP tumor cells; 0.1–10 MBq/mL, p < 0.05): significantly more effective
Effectiveness in vitro relative to ^177Lu-PSMA-617 (PC-3 PIP tumor cells; viability and survival of PC-3 PIP tumor cells): up to 3 fold
Effect on survival of PC-3 flu cells compared to ^177Lu-PSMA-617 [2]: tendency of a more pronounced effect
Biodistribution: Blood ([3]; 1 h p.i.): 0.49 ± 0.16 %IA/g
Biodistribution: Bone ([3]; 1 h p.i.): 0.21 ± 0.07 %IA/g
Biodistribution: Heart ([3]; 1 h p.i.): 0.21 ± 0.05 %IA/g
Biodistribution: Intestines ([3]; 1 h p.i.): 0.26 ± 0.05 %IA/g
Biodistribution: Kidneys ([3]; 1 h p.i.): 9.6 ± 1.3 %IA/g
Biodistribution: Liver ([3]; 1 h p.i.): 0.28 ± 0.05 %IA/g
Biodistribution: Lung ([3]; 1 h p.i.): 0.66 ± 0.28 %IA/g
Biodistribution: Muscle ([3]; 1 h p.i.): 0.13 ± 0.06 %IA/g
Biodistribution: PC-3 PIP tumor ([3]; 1 h p.i.): 44 ± 5.3 %IA/g
Biodistribution: PC-3 flu tumor ([3]; 1 h p.i.): 0.39 ± 0.18 %IA/g
Biodistribution: Salivary glands ([3]; 1 h p.i.): 0.28 ± 0.13 %IA/g
Biodistribution: Spleen ([3]; 1 h p.i.): 0.54 ± 0.08 %IA/g
Biodistribution: Stomach ([3]; 1 h p.i.): 0.22 ± 0.05 %IA/g
Tumor-to-blood ([3]; 1 h p.i.): 99 ± 27
Tumor-to-kidney ([3]; 1 h p.i.): 4.7 ± 0.5
Tumor-to-liver ([3]; 1 h p.i.): 163 ± 23
Biodistribution: Blood ([3]; 4 h p.i.): 0.08 ± 0.01 %IA/g
Biodistribution: Bone ([3]; 4 h p.i.): 0.09 ± 0.02 %IA/g
Biodistribution: Heart ([3]; 4 h p.i.): 0.05 ± 0.01 %IA/g
Biodistribution: Intestines ([3]; 4 h p.i.): 0.06 ± 0.01 %IA/g
Biodistribution: Kidneys ([3]; 4 h p.i.): 2.9 ± 0.14 %IA/g
Biodistribution: Liver ([3]; 4 h p.i.): 0.17 ± 0.02 %IA/g
Biodistribution: Lung ([3]; 4 h p.i.): 0.11 ± 0.01 %IA/g
Biodistribution: Muscle ([3]; 4 h p.i.): 0.03 ± 0.00 %IA/g
Biodistribution: PC-3 PIP tumor ([3]; 4 h p.i.): 49 ± 5.5 %IA/g
Biodistribution: PC-3 flu tumor ([3]; 4 h p.i.): 0.13 ± 0.02 %IA/g
Biodistribution: Salivary glands ([3]; 4 h p.i.): 0.07 ± 0.01 %IA/g
Biodistribution: Spleen ([3]; 4 h p.i.): 0.13 ± 0.01 %IA/g
Biodistribution: Stomach ([3]; 4 h p.i.): 0.08 ± 0.01 %IA/g
Tumor-to-blood ([3]; 4 h p.i.): 640 ± 132
Tumor-to-kidney ([3]; 4 h p.i.): 17 ± 1.6
Tumor-to-liver ([3]; 4 h p.i.): 302 ± 64
Biodistribution: Blood ([3]; 24 h p.i.): 0.03 ± 0.00 %IA/g
Biodistribution: Bone ([3]; 24 h p.i.): 0.09 ± 0.01 %IA/g
Biodistribution: Heart ([3]; 24 h p.i.): 0.03 ± 0.00 %IA/g
Biodistribution: Intestines ([3]; 24 h p.i.): 0.03 ± 0.00 %IA/g
Biodistribution: Kidneys ([3]; 24 h p.i.): 1.1 ± 0.09 %IA/g
Biodistribution: Liver ([3]; 24 h p.i.): 0.11 ± 0.02 %IA/g
Biodistribution: Lung ([3]; 24 h p.i.): 0.11 ± 0.09 %IA/g
Biodistribution: Muscle ([3]; 24 h p.i.): 0.02 ± 0.00 %IA/g
Biodistribution: PC-3 PIP tumor ([3]; 24 h p.i.): 43 ± 5.5 %IA/g
Biodistribution: PC-3 flu tumor ([3]; 24 h p.i.): 0.08 ± 0.01 %IA/g
Biodistribution: Salivary glands ([3]; 24 h p.i.): 0.05 ± 0.01 %IA/g
Biodistribution: Spleen ([3]; 24 h p.i.): 0.08 ± 0.01 %IA/g
Biodistribution: Stomach ([3]; 24 h p.i.): 0.04 ± 0.00 %IA/g
Tumor-to-blood ([3]; 24 h p.i.): 1668 ± 302
Tumor-to-kidney ([3]; 24 h p.i.): 43 ± 10
Tumor-to-liver ([3]; 24 h p.i.): 383 ± 65
Biodistribution: Blood ([3]; 48 h p.i.): 0.02 ± 0.00 %IA/g
Biodistribution: Bone ([3]; 48 h p.i.): 0.05 ± 0.01 %IA/g
Biodistribution: Heart ([3]; 48 h p.i.): 0.03 ± 0.00 %IA/g
Biodistribution: Intestines ([3]; 48 h p.i.): 0.02 ± 0.00 %IA/g
Biodistribution: Kidneys ([3]; 48 h p.i.): 0.58 ± 0.05 %IA/g
Biodistribution: Liver ([3]; 48 h p.i.): 0.12 ± 0.01 %IA/g
Biodistribution: Lung ([3]; 48 h p.i.): 0.04 ± 0.01 %IA/g
Biodistribution: Muscle ([3]; 48 h p.i.): 0.01 ± 0.00 %IA/g
Biodistribution: PC-3 PIP tumor ([3]; 48 h p.i.): 28 ± 4.1 %IA/g
Biodistribution: PC-3 flu tumor ([3]; 48 h p.i.): 0.06 ± 0.01 %IA/g
Biodistribution: Salivary glands ([3]; 48 h p.i.): 0.03 ± 0.00 %IA/g
Biodistribution: Spleen ([3]; 48 h p.i.): 0.07 ± 0.00 %IA/g
Biodistribution: Stomach ([3]; 48 h p.i.): 0.03 ± 0.00 %IA/g
Tumor-to-blood ([3]; 48 h p.i.): 1346 ± 166
Tumor-to-kidney ([3]; 48 h p.i.): 49 ± 7.2
Tumor-to-liver ([3]; 48 h p.i.): 229 ± 30
Biodistribution: Blood ([3]; 96 h p.i.): 0.01 ± 0.00 %IA/g
Biodistribution: Bone ([3]; 96 h p.i.): 0.06 ± 0.01 %IA/g
Biodistribution: Heart ([3]; 96 h p.i.): 0.02 ± 0.00 %IA/g
Biodistribution: Intestines ([3]; 96 h p.i.): 0.12 ± 0.12 %IA/g
Biodistribution: Kidneys ([3]; 96 h p.i.): 0.40 ± 0.04 %IA/g
Biodistribution: Liver ([3]; 96 h p.i.): 0.10 ± 0.00 %IA/g
Biodistribution: Lung ([3]; 96 h p.i.): 0.03 ± 0.00 %IA/g
Biodistribution: Muscle ([3]; 96 h p.i.): 0.01 ± 0.00 %IA/g
Biodistribution: PC-3 PIP tumor ([3]; 96 h p.i.): 22 ± 4.3 %IA/g
Biodistribution: PC-3 flu tumor ([3]; 96 h p.i.): 0.04 ± 0.01 %IA/g
Biodistribution: Salivary glands ([3]; 96 h p.i.): 0.03 ± 0.00 %IA/g
Biodistribution: Spleen ([3]; 96 h p.i.): 0.07 ± 0.01 %IA/g
Biodistribution: Stomach ([3]; 96 h p.i.): 0.66 ± 1.01 %IA/g
Tumor-to-blood ([3]; 96 h p.i.): 2053 ± 412
Tumor-to-kidney ([3]; 96 h p.i.): 56 ± 9.7
Tumor-to-liver ([3]; 96 h p.i.): 224 ± 33
Uptake in the PSMA-negative PC-3 flu tumor (SPECT/CT) ([4]; 1 h, 4 h and 24 h p.i.): negligible uptake
Renal excretion of activity (SPECT/CT) ([4]; after 4 h): almost entirely excreted

Source: PMC6820371, “Terbium-161 for PSMA-targeted radionuclide therapy of prostate cancer” (European Journal of Nuclear Medicine and Molecular Imaging, 2019)
